Data taken from PubChem BioAssay AID330 (DTP/NCI, 2004).
Values joined by “and” are separate entries in the source; they are usually repeats but may differ in a detail not shown here. Equal values may be shown once. Toxic doses and inconclusive results are not listed.

Tested on: P388 leukemia ip, CD2F1 mice, survival T/C
Experiment: NCI In Vivo Anticancer Drug Screen. Data for tumor model P388 Leukemia (intraperitoneal) in CD2F1 (CDF1) mice
Conditions: endpoint: median survival time, higher = longer survival
In short: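 Mice carrying the transplanted tumor received test compound or vehicle. Survival was recorded in each group, and the value is the treated-group measurement divided by that of the vehicle-treated control group.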

[1] = dose: 50.0 mg/kg/injection, schedule: Q01DX009 (ip), vehicle: saline
[2] = dose: 60.0 mg/kg/injection, schedule: Q01DX005 (ip), vehicle: saline with Tween-80
[3] = dose: 120.0 mg/kg/injection, schedule: Q01DX005 (ip), vehicle: saline with Tween-80
[4] = dose: 240.0 mg/kg/injection, schedule: Q01DX005 (ip), vehicle: saline with Tween-80
[5] = dose: 50.0 mg/kg/injection, schedule: Q01DX005 (ip), vehicle: saline with Tween-80
[6] = dose: 100.0 mg/kg/injection, schedule: Q01DX005 (ip), vehicle: saline with Tween-80
[7] = dose: 200.0 mg/kg/injection, schedule: Q01DX005 (ip), vehicle: saline with Tween-80
[8] = dose: 5.0 mg/kg/injection, schedule: Q04DX003 (ip), vehicle: saline with Tween-80
[9] = dose: 100.0 mg/kg/injection, schedule: Q04DX003 (ip), vehicle: saline
[10] = dose: 200.0 mg/kg/injection, schedule: Q04DX003 (ip), vehicle: saline
[11] = dose: 400.0 mg/kg/injection, schedule: Q04DX003 (ip), vehicle: saline
[12] = dose: 25.0 mg/kg/injection, schedule: Q01DX005 (ip), vehicle: saline with Tween-80

Compound: CC(=O)O[C@@H]1C(C(=O)[C@@H](C)C(C)C)OCOC1C1CC(=O)NC(=O)C1 (stereo not given in full)
- T/C (dose: 0.01 mg/kg/injection, schedule: Q01DX009 (ip), vehicle: distilled water + alcohol): 100 % of control
- T/C (dose: 0.03 mg/kg/injection, schedule: Q01DX009 (ip), vehicle: distilled water + alcohol): 100 % of control
- T/C (dose: 0.06 mg/kg/injection, schedule: Q01DX009 (ip), vehicle: distilled water + alcohol): 93 % of control
- T/C (dose: 0.12 mg/kg/injection, schedule: Q01DX009 (ip), vehicle: distilled water + alcohol): 98 % of control

Compound: CC(=O)C(C)OP(=O)(O)OCC[N+](C)(C)C (stereo not given)
- T/C (dose: 12.5 mg/kg/injection, schedule: Q01DX009 (ip), vehicle: saline): 100 % of control
- T/C (dose: 25.0 mg/kg/injection, schedule: Q01DX009 (ip), vehicle: saline): 104 % of control
- T/C [1]: 114 % of control

Compound: CCOc1cc2c(cc1C(CC)c1ccc(OCc3ccccc3)cc1)OCO2 (stereo not given)
- T/C (dose: 50.0 mg/kg/injection, schedule: Q01DX005 (ip), vehicle: Klucel (hydroxypropylcellulose) (HPC)): 92 % of control
- T/C (dose: 100.0 mg/kg/injection, schedule: Q01DX005 (ip), vehicle: Klucel (hydroxypropylcellulose) (HPC)): 87 % of control

Compound: CC(=Nc1c(Cl)c(Cl)c2c(c1Cl)C(=O)c1cc(Cl)ccc1-2)NO
- T/C [2]: 97 % of control
- T/C [3]: 104 % of control
- T/C [4]: 95 % of control

Compound: CN1CC2c3ccccc3C(=O)C1(O)c1ccccc12 (stereo not given)
- T/C [5]: 103 % of control
- T/C [6]: 103 % of control
- T/C [7]: 103 % of control

Compound: COc1cccc2c1C(=O)c1c(O)c3c(c(O)c1C2=O)C[C@@](O)(C(C)=O)CC3OC1CC(NC(=O)CCN)C(O)C(C)O1 (stereo not given in full)
- T/C (dose: 6.25 mg/kg/injection, schedule: Q04DX003 (ip), vehicle: saline): 97 % of control
- T/C (dose: 12.5 mg/kg/injection, schedule: Q04DX003 (ip), vehicle: saline): 100 % of control
- T/C (dose: 25.0 mg/kg/injection, schedule: Q04DX003 (ip), vehicle: saline): 103 % of control
- T/C (dose: 50.0 mg/kg/injection, schedule: Q04DX003 (ip), vehicle: saline): 97 % of control

Compound: Nc1ccc(N)cc1
- T/C (dose: 5.0 mg/kg/injection, schedule: Q01DX009 (ip), vehicle: saline with Tween-80): 95 % of control
- T/C [8]: 104 % of control
- T/C (dose: 10.0 mg/kg/injection, schedule: Q01DX009 (ip), vehicle: saline with Tween-80): 100 % of control
- T/C (dose: 10.0 mg/kg/injection, schedule: Q04DX003 (ip), vehicle: saline with Tween-80): 104 % of control
- T/C (dose: 20.0 mg/kg/injection, schedule: Q01DX009 (ip), vehicle: saline with Tween-80): 100 % of control
- T/C (dose: 20.0 mg/kg/injection, schedule: Q04DX003 (ip), vehicle: saline with Tween-80): 104 % of control

Compound: COC1CCCC2OC3(OC)C(OC)CCCC3OC12OC (stereo not given)
- T/C (dose: 50.0 mg/kg/injection, schedule: Q04DX003 (ip), vehicle: Klucel (hydroxypropylcellulose) (HPC)): 100 % of control
- T/C (dose: 100.0 mg/kg/injection, schedule: Q04DX003 (ip), vehicle: Klucel (hydroxypropylcellulose) (HPC)): 97 % of control
- T/C (dose: 200.0 mg/kg/injection, schedule: Q04DX003 (ip), vehicle: Klucel (hydroxypropylcellulose) (HPC)): 96 % of control

Compound: CC(C)(C)C1=CC(C#N)N(Cc2ccccc2)CC1 (stereo not given)
- T/C (dose: 60.0 mg/kg/injection, schedule: Q01DX005 (ip), vehicle: Klucel (hydroxypropylcellulose) (HPC)): 110 % of control
- T/C (dose: 120.0 mg/kg/injection, schedule: Q01DX005 (ip), vehicle: Klucel (hydroxypropylcellulose) (HPC)): 108 % of control
- T/C (dose: 240.0 mg/kg/injection, schedule: Q01DX005 (ip), vehicle: Klucel (hydroxypropylcellulose) (HPC)): 109 % of control

Compound: COC(=O)C(C)Oc1ccc(OC#N)cc1 (stereo not given)
- T/C [2]: 102 % of control
- T/C [3]: 101 % of control
- T/C [4]: 93 % of control

Compound: C[Si](C)(C)C#CC(C(O)c1ccccc1)N1CCCC1 (stereo not given)
- T/C [9]: 94 % of control
- T/C [10]: 92 % of control
- T/C [11]: 101 % of control

Compound: C=CCC1(CCC#N)C(=O)CC(C)(C)CC1=O
- T/C [9]: 104 % of control
- T/C [10]: 99 % of control
- T/C [11]: 98 % of control

Compound: COc1ccc(CC(NC(=O)NSc2ccccc2)C(=O)NC2C(CO)OC(n3cnc4c(N(C)C)ncnc43)C2O)cc1 (stereo not given)
- T/C (dose: 12.5 mg/kg/injection, schedule: Q01DX005 (ip), vehicle: saline with Tween-80): 90 % of control
- T/C [12]: 93 % of control
- T/C [5]: 88 % of control and 91 % of control

Compound: Cc1[nH]oc(=O)c1C(=O)O
- T/C [1]: 100 % of control
- T/C (dose: 100.0 mg/kg/injection, schedule: Q01DX009 (ip), vehicle: saline): 99 % of control
- T/C (dose: 200.0 mg/kg/injection, schedule: Q01DX009 (ip), vehicle: saline): 89 % of control

Compound: COC(=O)c1nn(C)c(=O)[nH]c1=O
- T/C [5]: 103 % of control
- T/C [6]: 98 % of control
- T/C [7]: 100 % of control

Compound: C[C@]12CC[C@@H]3c4ccc(OCCCO)c([N+](=O)[O-])c4CC[C@H]3[C@@H]1CCC2=O
- T/C [12]: 100 % of control
- T/C [5]: 106 % of control
- T/C [6]: 91 % of control
- T/C [7]: 88 % of control

Compound: COc1ccc(CN2CCCN(Cc3ccc(OC)cc3)P2(=O)Nc2ccc(OC)cc2)cc1
- T/C [5]: 97 % of control
- T/C [6]: 100 % of control
- T/C [7]: 100 % of control

Compound: CCCCCCCCCCCCCCCC[N+]1(CC)CCCC1
- T/C (dose: 0.09 mg/kg/injection, schedule: Q01DX009 (ip), vehicle: saline): 100 % of control
- T/C (dose: 0.19 mg/kg/injection, schedule: Q01DX009 (ip), vehicle: saline): 98 % of control
- T/C (dose: 0.39 mg/kg/injection, schedule: Q01DX009 (ip), vehicle: saline): 112 % of control and 93 % of control

Compound: CCOC(=O)C(Cc1ccc(N(CCCl)CCCl)cc1)NC=O (stereo not given)
- T/C (dose: 6.25 mg/kg/injection, schedule: Q04DX003 (ip), vehicle: saline with Tween-80): 150 % of control
- T/C (dose: 12.5 mg/kg/injection, schedule: Q04DX003 (ip), vehicle: saline with Tween-80): 154 % of control
- T/C (dose: 25.0 mg/kg/injection, schedule: Q01DX009 (ip), vehicle: saline with Tween-80): 181 % of control
- T/C (dose: 50.0 mg/kg/injection, schedule: Q01DX009 (ip), vehicle: saline with Tween-80): 209 % of control
- T/C (dose: 50.0 mg/kg/injection, schedule: Q04DX003 (ip), vehicle: saline with Tween-80): 181 % of control
- T/C (dose: 100.0 mg/kg/injection, schedule: Q01DX009 (ip), vehicle: saline with Tween-80): 100 % of control
- T/C (dose: 100.0 mg/kg/injection, schedule: Q04DX003 (ip), vehicle: saline with Tween-80): 204 % of control and 216 % of control
- T/C (dose: 200.0 mg/kg/injection, schedule: Q04DX003 (ip), vehicle: saline with Tween-80): 91 % of control

Compound: C[C@]12C=C[C@@]3(CC[C@@H]4[C@](C)(CO)[C@H](O)CC[C@@]4(C)[C@@H]3CC1)C2
- T/C (dose: 3.5 mg/kg/injection, schedule: Q01DX005 (ip), vehicle: Klucel (hydroxypropylcellulose) (HPC)): 89 % of control
- T/C (dose: 7.0 mg/kg/injection, schedule: Q01DX005 (ip), vehicle: Klucel (hydroxypropylcellulose) (HPC)): 100 % of control
- T/C (dose: 14.0 mg/kg/injection, schedule: Q01DX005 (ip), vehicle: Klucel (hydroxypropylcellulose) (HPC)): 92 % of control
- T/C (dose: 28.0 mg/kg/injection, schedule: Q01DX005 (ip), vehicle: Klucel (hydroxypropylcellulose) (HPC)): 96 % of control

Compound: O=C(CC(O)(C(F)(F)F)C(F)(F)F)CC(O)(C(F)(F)F)C(F)(F)F
- T/C (dose: 0.5 mg/kg/injection, schedule: Q04DX003 (ip), vehicle: saline + alcohol): 95 % of control
- T/C (dose: 1.0 mg/kg/injection, schedule: Q04DX003 (ip), vehicle: saline + alcohol): 100 % of control
- T/C (dose: 1.25 mg/kg/injection, schedule: Q04DX003 (ip), vehicle: saline with Tween-80): 100 % of control and 95 % of control
- T/C (dose: 2.0 mg/kg/injection, schedule: Q04DX003 (ip), vehicle: saline + alcohol): 90 % of control
- T/C (dose: 2.5 mg/kg/injection, schedule: Q04DX003 (ip), vehicle: saline with Tween-80): 100 % of control
- T/C [8]: 100 % of control and 91 % of control

Compound: O=c1[nH]nc(-c2ccc3c(c2)OCO3)o1
- T/C (dose: 32.5 mg/kg/injection, schedule: Q01DX009 (ip), vehicle: Klucel (hydroxypropylcellulose) (HPC)): 105 % of control
- T/C (dose: 65.0 mg/kg/injection, schedule: Q01DX009 (ip), vehicle: Klucel (hydroxypropylcellulose) (HPC)): 95 % of control
- T/C (dose: 130.0 mg/kg/injection, schedule: Q01DX009 (ip), vehicle: Klucel (hydroxypropylcellulose) (HPC)): 95 % of control

Compound: C/C(=C\C(=O)Nc1ccc(S(=O)(=O)F)cc1)c1ccc([N+](=O)[O-])cc1
- T/C [2]: 100 % of control
- T/C [3]: 102 % of control
- T/C [4]: 90 % of control

Compound: O=[N+]([O-])c1cc([N+](=O)[O-])c(N2CC2)cc1C1=NCCO1
- T/C (dose: 50.0 mg/kg/injection, schedule: Q01DX009 (ip), vehicle: Klucel (hydroxypropylcellulose) (HPC)): 98 % of control
- T/C (dose: 100.0 mg/kg/injection, schedule: Q01DX009 (ip), vehicle: Klucel (hydroxypropylcellulose) (HPC)): 110 % of control
